Measurements published in ChEMBL document CHEMBL1131831, “A rapid method to identify exo-protease inhibitors” (Bioorg Med Chem Lett, 1999).

Tests used:
Trypsin = Trypsin (Sus scrofa, UniProt P00761); test: Inhibition constant (Ki) against trypsin enzyme for the conversion of water-soluble compound to fluorescent oil-soluble compound
[1] = target: Leukocyte elastase (Homo sapiens); test: Inhibition constant (Ki) against human leukocyte elastase.
[2] = target: Leukocyte elastase (Homo sapiens); test: Inhibition constant (Ki) when mixed with p-nitroanilide against human leukocyte elastase for the conversion of water-soluble compound to fluorescent oil-soluble compound

Trypsin, sequence (P00761 whole entry): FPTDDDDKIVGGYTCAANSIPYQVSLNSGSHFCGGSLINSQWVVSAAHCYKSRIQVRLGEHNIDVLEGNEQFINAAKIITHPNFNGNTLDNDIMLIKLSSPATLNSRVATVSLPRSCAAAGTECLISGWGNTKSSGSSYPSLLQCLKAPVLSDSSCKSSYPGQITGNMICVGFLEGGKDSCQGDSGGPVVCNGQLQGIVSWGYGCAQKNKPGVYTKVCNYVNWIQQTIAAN

Row | Ki (Trypsin) | Ki [1] | Ki [2] | SMILES
1 | ~800 µM |  |  | O=C1C=CC(=O)N1c1ccccc1
2 |  | 248 µM |  | CC(NC(=O)[C@H](C)NC(=O)c1cccc2c1Oc1c(C(=O)NC(C)C(=O)N[C@@H](C)C(=O)O)cccc1C2(C)C)C(=O)O (single isomer, unassigned)
3 |  | 515 µM |  | CC(C)C(NC(=O)c1cccc2c1Oc1c(C(=O)N[C@H](C(=O)O)C(C)C)cccc1C2(C)C)C(=O)O (single isomer, unassigned)
4 |  | 86 µM | 0.128 µM | CC(NC(=O)[C@H](C)NC(=O)c1cccc2c1Oc1c(C(=O)NC(C(=O)O)C(C)C)cccc1C2(C)C)C(=O)O (single isomer, unassigned)
